Data reported in ChEMBL document CHEMBL3045275, “Synthesis and antibacterial activity of some new hydrazones” (2013).

Assays:
Format in all cases: functional
Settings in all cases: read-out: DIZ
Proteus mirabilis [1] = assay: Antibacterial activity against Proteus mirabilis assessed as diameter of growth inhibition zone at 50 ug/ml after 24 hr by agar diffusion method
Pseudomonas aeruginosa [2] = assay: Antibacterial activity against Pseudomonas aeruginosa assessed as diameter of growth inhibition zone at 100 ug/ml after 24 hr by agar diffusion method
Escherichia coli [3] = assay: Antibacterial activity against Escherichia coli assessed as diameter of growth inhibition zone at 50 ug/ml after 24 hr by agar diffusion method
Staphylococcus aureus [4] = assay: Antibacterial activity against Staphylococcus aureus assessed as diameter of growth inhibition zone at 100 ug/ml after 24 hr by agar diffusion method
Staphylococcus aureus [5] = assay: Antibacterial activity against Staphylococcus aureus assessed as diameter of growth inhibition zone at 50 ug/ml after 24 hr by agar diffusion method
Salmonella typhi [6] = assay: Antibacterial activity against Salmonella enterica subsp. enterica serovar Typhi assessed as diameter of growth inhibition zone at 50 ug/ml after 24 hr by agar diffusion method
Salmonella typhi [7] = assay: Antibacterial activity against Salmonella enterica subsp. enterica serovar Typhi assessed as diameter of growth inhibition zone at 100 ug/ml after 24 hr by agar diffusion method
Proteus mirabilis [8] = assay: Antibacterial activity against Proteus mirabilis assessed as diameter of growth inhibition zone at 100 ug/ml after 24 hr by agar diffusion method
Bacillus subtilis [9] = assay: Antibacterial activity against Bacillus subtilis assessed as diameter of growth inhibition zone at 50 ug/ml after 24 hr by agar diffusion method
Pseudomonas aeruginosa [10] = assay: Antibacterial activity against Pseudomonas aeruginosa assessed as diameter of growth inhibition zone at 50 ug/ml after 24 hr by agar diffusion method
Bacillus subtilis [11] = assay: Antibacterial activity against Bacillus subtilis assessed as diameter of growth inhibition zone at 100 ug/ml after 24 hr by agar diffusion method
Escherichia coli [12] = assay: Antibacterial activity against Escherichia coli assessed as diameter of growth inhibition zone at 100 ug/ml after 24 hr by agar diffusion method

Row | SMILES | zone of inhibition at 50 µg/mL (Proteus mirabilis [1]) [mm] | zone of inhibition at 100 µg/mL (Pseudomonas aeruginosa [2]) [mm] | zone of inhibition at 50 µg/mL (Escherichia coli [3]) [mm] | zone of inhibition at 100 µg/mL (Staphylococcus aureus [4]) [mm] | zone of inhibition at 50 µg/mL (Staphylococcus aureus [5]) [mm] | zone of inhibition at 50 µg/mL (Salmonella typhi [6]) [mm] | zone of inhibition at 100 µg/mL (Salmonella typhi [7]) [mm] | zone of inhibition at 100 µg/mL (Proteus mirabilis [8]) [mm] | zone of inhibition at 50 µg/mL (Bacillus subtilis [9]) [mm] | zone of inhibition at 50 µg/mL (Pseudomonas aeruginosa [10]) [mm] | zone of inhibition at 100 µg/mL (Bacillus subtilis [11]) [mm] | zone of inhibition at 100 µg/mL (Escherichia coli [12]) [mm]
1 | C(=C\c1ccccc1)/C(=N\Nc1nc(-c2ccccc2)cs1)c1ccccc1 | 6.5 | 8 | 7 | 8.5 | 6.5 | 6 | 8 | 8.5 | 6.5 | 6 | 8.5 | 8.5
2 | O=C(O)c1cn(C2CC2)c2cc(N3CCNCC3)c(F)cc2c1=O [CIPROFLOXACIN] | 19.5 | – | 18.5 | – | 18 | 18 | – | – | 18 | 19 | – | –
3 | CC1=NC(=C/c2ccccc2)/C(=N/Nc2ccc([N+](=O)[O-])cc2[N+](=O)[O-])O1 | 6 | 8.5 | 6 | 9 | 6.5 | 6.5 | 8 | 9.5 | 6 | 6 | 9 | 8.5
4 | CC(/C=C/c1ccccc1)=N\NC(=O)c1ccncc1 | 6 | 8 | 6 | 8.5 | 6 | 6 | 8.5 | 8.5 | 6 | 6 | 8.5 | 8
5 | O=[N+]([O-])c1ccc(N/N=C(/C=C/c2ccccc2)c2ccccc2)c([N+](=O)[O-])c1 | 6.5 | 8.5 | 6.5 | 8.5 | 6 | 6.5 | 8.5 | 9.5 | 6.5 | 6 | 9 | 8
6 | CC(/C=C/c1ccccc1)=N\Nc1ccccc1 | 6 | 8.5 | 6 | 8.5 | 6 | 6.5 | 8.5 | 9 | 6.5 | 6 | 8.5 | 8.5
7 | C(=C\c1ccccc1)/C(=N/Nc1ccc(-c2nc3ccccc3[nH]2)cc1)c1ccccc1 | 6 | 8.5 | 6 | 9 | 6.5 | 6.5 | 8 | 8.5 | 6 | 6 | 8.5 | 8.5
8 | CC(/C=C/c1ccccc1)=N/Nc1nc(-c2ccccc2)cs1 | 6.5 | 8 | 6 | 9.5 | 6.5 | 6 | 8 | 8 | 6 | 6 | 8.5 | 9
9 | CC(/C=C/c1ccccc1)=N\Nc1ccc(-c2nc3ccccc3[nH]2)cc1 | 6.5 | 8 | 6.5 | 8 | 6.5 | 6 | 8 | 8.5 | 6 | 6 | 8.5 | 9
10 | O=C(N/N=C(/C=C/c1ccccc1)c1ccccc1)c1ccncc1 | 6.5 | 8.5 | 6 | 8 | 6 | 6 | 8 | 8 | 6 | 6 | 8.5 | 8
11 | CC1=NC(=C/c2ccccc2)/C(=N/Nc2ccccc2)O1 | 6.5 | 8 | 6.5 | 16 | 14 | 6 | 8 | 8.5 | 6 | 6 | 9.5 | 9
